16 compounds from PubChem BioAssay (NCI) can be followed below.

Structures are written as SMILES. Several values for one entry are separate records, joined by “and”; a condition that tells them apart may be missing. Equal entries are not always repeated.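 Cells were grown in 96-well plates and exposed to each compound for 48 hours at five concentrations; endpoints were interpolated linearly between bracketing concentrations, or set to the highest concentration if not reached. Here, GI50 denotes the concentration required for 50% inhibition of growth. At the TGI there is no net growth.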

Among the test systems are HOP-18 NSCLC; DMS 114 small cell lung; KM20L2 colon; SNB-78 CNS; DLD-1 colon; LXFL 529 NSCLC; XF 498 CNS; RXF-631 renal; P388/ADR leukemia; P388 leukemia; SN12K1 renal.
What all share (assay): NCI tumour cell line growth inhibition, 48 h

As for `Cc1c2cc[n+](C)cc2c(C)c2c1[nH]c1ccc(OCC(F)(F)F)cc12`, the TGI is 23.4 µM and > 100 µM with HOP-18 NSCLC; greater than 21.6 µM with DMS 114 small cell lung; greater than 100 µM in the test with KM20L2 colon; greater than 100 µM in the test with SNB-78 CNS; greater than 100 µM in the test with DLD-1 colon; 6.5 µM with LXFL 529 NSCLC.
As for `CCCCn1c(-c2ccccc2)cs/c1=N\NC(=O)Cn1c(C)nc2ccccc21`, the TGI with HOP-18 NSCLC, in the test on KM20L2 colon, with SNB-78 CNS, in the test with XF 498 CNS, in the test on DLD-1 colon and in the test with LXFL 529 NSCLC was greater than 100 µM throughout.
Consider `C=C1C(=O)OC2C[C@@]3(C)CCCC(=C)C3CC12` (some centres undefined), for which the TGI with HOP-18 NSCLC was determined as 31.3 µM; with DMS 114 small cell lung, 29.8 µM; with KM20L2 colon, 25.9 µM; in the test with SNB-78 CNS, 13.5 µM; with XF 498 CNS, 13.5 µM; in the test on DLD-1 colon, 14.7 µM. The TGI with LXFL 529 NSCLC came to 11.8 µM.
For `O=c1[nH]c(=S)[nH]c2c1CCCN2`, the TGI with HOP-18 NSCLC, with DMS 114 small cell lung, in the test with SNB-78 CNS, in the test with DLD-1 colon, in the test on LXFL 529 NSCLC and in the test on RXF-631 renal was greater than 100 µM in each case.
On to `C/C(=N/NC(N)=S)C(CN1CCOCC1)C(C1=C(O)c2ccccc2OC1)c1ccccc1` (centres undefined), for which the TGI in the test on HOP-18 NSCLC, in the test with KM20L2 colon, in the test on SNB-78 CNS, in the test on XF 498 CNS, with DLD-1 colon and in the test with LXFL 529 NSCLC was greater than 100 µM in each case.
As for `CCN(CC)CC[n+]1ccc2c(C)c3[nH]c4ccccc4c3c(C)c2c1`, the GI50 was 0.901 µM and 1.91 µM in the test with HOP-18 NSCLC; 0.27 µM and 0.782 µM in the test on KM20L2 colon; 0.293 µM and 1.17 µM with SNB-78 CNS; 0.0448 µM and 0.024 µM with P388 leukemia; 0.268 µM in the test on SN12K1 renal. Moreover, the TGI in the test with HOP-18 NSCLC is 4.82 µM and 7.88 µM; in the test on KM20L2 colon, 1.51 µM and 6.24 µM; in the test on SNB-78 CNS, 1.49 µM and 7.14 µM; in the test on P388/ADR leukemia, > 100 µM and 125 µM; with P388 leukemia, 1.41 µM and 4.27 µM; with DLD-1 colon it was 13.5 µM and 14.6 µM. Moreover, the TGI with SN12K1 renal was 1.18 µM and 1.8 µM.
`C/C(N=NS(=O)(=O)c1c(C)cc(C)cc1C)=C1\C=CC=CN1O`: the TGI in the test with HOP-18 NSCLC, in the test with DMS 114 small cell lung, with KM20L2 colon, in the test with SNB-78 CNS, with XF 498 CNS and with DLD-1 colon was greater than 100 µM each time. In the test with LXFL 529 NSCLC, this compound showed a TGI greater than 100 µM.
Take `COC(=O)c1c(CC(=O)OC(C)C)cc2n(c1=O)Cc1c-2nc2ccccc2c1OC`: the TGI in the test on HOP-18 NSCLC, in the test with DMS 114 small cell lung, with KM20L2 colon, in the test with XF 498 CNS, in the test with DLD-1 colon and with LXFL 529 NSCLC was greater than 100 µM in each case.
Regarding `O=Cn1c2ccccc2c2ccccc21`, the TGI with HOP-18 NSCLC, with DMS 114 small cell lung, with KM20L2 colon, in the test on SNB-78 CNS, in the test on XF 498 CNS and in the test with DLD-1 colon was greater than 100 µM throughout. Besides, in the test with LXFL 529 NSCLC, the TGI was greater than 100 µM.
Regarding `CN1COCN=C1NC#N`, the TGI in the test with HOP-18 NSCLC, in the test on DMS 114 small cell lung, in the test on KM20L2 colon, in the test with SNB-78 CNS, in the test with XF 498 CNS and in the test on DLD-1 colon was greater than 100 µM throughout. In addition, the TGI in the test with LXFL 529 NSCLC and in the test with RXF-631 renal was greater than 100 µM each time.
For `c1ccc(C2N=C(c3ccccn3)C(c3ccccn3)=NC2c2ccccc2)cc1` (centres undefined), the TGI in the test on HOP-18 NSCLC, with DMS 114 small cell lung, in the test with KM20L2 colon, with SNB-78 CNS, in the test on XF 498 CNS and in the test on DLD-1 colon was greater than 100 µM in each case. The same compound registered a TGI with LXFL 529 NSCLC greater than 100 µM.
With `NCCCNCCSP(=O)(O)O`, the TGI with HOP-18 NSCLC is greater than 750 µM; in the test on DMS 114 small cell lung, greater than 750 µM; in the test on KM20L2 colon, greater than 750 µM; in the test with SNB-78 CNS, greater than 750 µM; in the test on XF 498 CNS, greater than 422 µM; with P388/ADR leukemia, greater than 750 µM. Besides, the TGI with P388 leukemia, in the test on DLD-1 colon and in the test with SN12K1 renal was greater than 750 µM each time.
Consider `Cc1ccc(N2Cc3c(ccc4ccccc34)OP2(=S)N2CCCC2)cc1` (centres undefined), for which the TGI was greater than 100 µM in the test on HOP-18 NSCLC; greater than 100 µM with KM20L2 colon; greater than 100 µM in the test on SNB-78 CNS; greater than 100 µM in the test with XF 498 CNS; greater than 100 µM with P388/ADR leukemia; 47.9 µM with P388 leukemia. For the same compound, the TGI with DLD-1 colon and in the test on SN12K1 renal was greater than 100 µM each time.
Turning to `O=c1cc(-c2ccccc2)oc2cc(OCCCCCCCCCCOc3ccc4c(=O)cc(-c5ccccc5)oc4c3)ccc12`, the TGI in the test on HOP-18 NSCLC, in the test on DMS 114 small cell lung, in the test on KM20L2 colon, with SNB-78 CNS, in the test with XF 498 CNS and in the test with LXFL 529 NSCLC was greater than 100 µM each time. In the test on RXF-631 renal, this compound registered a TGI greater than 100 µM.
For `CC(C)=CC(=O)OC1C2C(C)=CC(=O)C(O)C2(C)C2C3(O)OCC24C(CC(=O)OC14)C(C)C3O` (centres undefined), the GI50 is 0.192 µM and 0.0777 µM in the test on HOP-18 NSCLC; 0.0575 µM with SNB-78 CNS; 0.00543 µM in the test with XF 498 CNS; 0.181 µM in the test with P388/ADR leukemia; 0.00412 µM in the test on SN12K1 renal. The TGI was 0.689 µM and 0.493 µM in the test with HOP-18 NSCLC; 0.197 µM and 0.153 µM in the test on KM20L2 colon; 0.36 µM and 0.153 µM in the test with SNB-78 CNS; 0.0217 µM and 0.0556 µM with XF 498 CNS; 0.575 µM and 0.84 µM in the test with P388/ADR leukemia; 0.00568 µM in the test on P388 leukemia. For the same compound, the TGI with DLD-1 colon is 0.221 µM and 0.554 µM; in the test with SN12K1 renal, 0.0169 µM and 0.0213 µM.
`COC1CCC(CO)OO1` (centres undefined): the TGI with DMS 114 small cell lung was 36.6 µM; in the test with KM20L2 colon, greater than 100 µM; in the test with SNB-78 CNS it was 66.9 µM; in the test with LXFL 529 NSCLC it was greater than 100 µM.
